Measurements taken from BindingDB's records for doi:10.7270/Q21R6NZ6 (Emory University, 2008).

Molecular target: Mothers against decapentaplegic homolog 3 (Homo sapiens, UniProt P84022)
Assay: blockers of Smad3 complex formation in lysate – cell lysate, secondary confirmation, chemiluminescent ELISA, HEK293 lysate, dose response (AID 1058)

Chain of Mothers against decapentaplegic homolog 3 (P84022 whole entry): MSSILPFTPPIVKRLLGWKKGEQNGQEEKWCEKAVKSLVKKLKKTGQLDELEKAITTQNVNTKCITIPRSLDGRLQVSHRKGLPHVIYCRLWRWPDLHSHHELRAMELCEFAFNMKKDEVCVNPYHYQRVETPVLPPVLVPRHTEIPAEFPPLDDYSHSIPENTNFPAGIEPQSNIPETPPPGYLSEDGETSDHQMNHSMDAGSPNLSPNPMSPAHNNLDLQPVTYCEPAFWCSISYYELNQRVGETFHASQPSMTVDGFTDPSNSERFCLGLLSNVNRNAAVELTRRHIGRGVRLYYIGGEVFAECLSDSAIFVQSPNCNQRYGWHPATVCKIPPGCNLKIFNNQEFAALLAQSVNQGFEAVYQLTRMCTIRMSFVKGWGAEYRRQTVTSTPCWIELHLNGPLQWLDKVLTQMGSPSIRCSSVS

## COC(=O)c1ccccc1C1c2ccc(O)c(O)c2OC2C(=O)C(=O)C=CC21 (stereo unspecified) [2-(3,4,5-trihydroxy-6-keto-8a,9-dihydroxanthen-9-yl)benzoic acid methyl ester]
  IC50: > 50 µM
